{"source": "paper PMC9781087", "about": "“Discovery of New Microbial Collagenase Inhibitors” (Life, 2022)", "key": {"[1]": {"test": "Solubility", "details": "in words"}, "[2]": {"target": "collagenase A (ColA) (Clostridium perfringens, UniProt P43153)", "sequence (P43153 87-1104 limits assumed)": "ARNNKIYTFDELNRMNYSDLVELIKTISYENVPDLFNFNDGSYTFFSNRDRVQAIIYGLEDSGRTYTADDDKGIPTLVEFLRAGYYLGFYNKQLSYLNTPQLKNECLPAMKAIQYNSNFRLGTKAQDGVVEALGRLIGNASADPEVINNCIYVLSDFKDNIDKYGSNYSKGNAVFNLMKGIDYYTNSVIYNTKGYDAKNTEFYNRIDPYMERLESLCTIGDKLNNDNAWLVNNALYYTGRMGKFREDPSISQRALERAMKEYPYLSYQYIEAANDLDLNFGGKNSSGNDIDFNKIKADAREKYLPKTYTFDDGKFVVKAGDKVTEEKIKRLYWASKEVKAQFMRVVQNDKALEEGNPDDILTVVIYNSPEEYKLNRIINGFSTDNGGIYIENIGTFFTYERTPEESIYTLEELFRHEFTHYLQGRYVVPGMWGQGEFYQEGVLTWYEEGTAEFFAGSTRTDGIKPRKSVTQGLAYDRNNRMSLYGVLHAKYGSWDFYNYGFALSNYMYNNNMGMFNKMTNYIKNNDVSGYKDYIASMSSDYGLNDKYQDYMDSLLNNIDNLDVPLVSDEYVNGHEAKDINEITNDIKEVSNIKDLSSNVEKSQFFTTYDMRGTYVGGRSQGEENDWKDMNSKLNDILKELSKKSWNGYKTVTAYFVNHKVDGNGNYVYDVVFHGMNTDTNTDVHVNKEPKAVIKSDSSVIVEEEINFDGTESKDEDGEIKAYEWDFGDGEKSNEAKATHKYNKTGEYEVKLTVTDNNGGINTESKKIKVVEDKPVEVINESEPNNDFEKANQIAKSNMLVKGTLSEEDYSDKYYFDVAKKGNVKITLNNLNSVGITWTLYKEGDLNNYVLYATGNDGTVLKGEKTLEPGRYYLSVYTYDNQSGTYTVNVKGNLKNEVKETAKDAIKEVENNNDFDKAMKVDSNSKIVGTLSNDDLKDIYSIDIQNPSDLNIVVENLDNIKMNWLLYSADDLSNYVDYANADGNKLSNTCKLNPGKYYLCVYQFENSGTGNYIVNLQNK", "test": "biochemical", "parameters": "species or system C. perfringens", "details": "for Inhibition (%) on ColA: after 30 min of incubation"}, "[3]": {"test_system": "Staphylococcus aureus, Enterococcus faecalis, and Staphylococcus epidermidis", "parameters": "method as in PMID 31486108", "details": "cited from earlier work"}, "[4]": {"test_system": "mice", "parameters": "method as in PMID 34684834", "details": "acute toxicity; cited from earlier work"}, "[5]": {"test_system": "neuraminidase protein of Clostridium perfringens", "details": "cited from earlier work"}, "[6]": {"test_system": "rats intratendineously injected with collagenase", "parameters": "method as in PMID 28165813", "details": "intragastrical administration, 100 mg/kg; cited from earlier work"}, "[7]": {"target": "collagenase from Clostridium histolyticum", "parameters": "method as in PMID 16276971", "details": "cited from earlier work"}, "[8]": {"details": "read-out: Inhibition (%) on ColA"}, "[9]": {"details": "read-out: Inhibition(%) on ColA"}}, "note": "Where two headings read alike, the source gives them in different places.", "data": [{"compound": "O=C1c2ccc(O)cc2OC(c2cc(O)c(O)c(O)c2)C1O", "note": "(stereo not shown) [Dihydrorobinetin, dihydrorobinetin]", "values": [{"measurement": "solubility", "setting": "[1]", "result": "poor solubility in water"}, {"measurement": "Inhibition (%) on ColA", "setting": "[2]; 10 µM, mean ± SD of three replications", "result": "Almost complete inhibition"}, {"measurement": "inhibition at 1 µM", "setting": "[2]; [8]", "result": "-16.5 ± 1.6", "unit": "%"}, {"measurement": "inhibition at 5 µM", "setting": "[2]; [8]", "result": "-29.7 ± 0.5", "unit": "%"}, {"measurement": "inhibition at 10 µM", "setting": "[2]; [8]", "result": "105.1 ± 0.5", "unit": "%"}, {"measurement": "inhibition at 100 µM", "setting": "[2]; [9]", "result": 96.9, "unit": "%"}]}, {"compound": "O=C1C=CC(=O)c2c(O)cccc21", "note": "[Juglone, juglone]", "values": [{"measurement": "inhibitory effect on ColA (in words)", "setting": "[2]", "result": "potent inhibitors of ColA"}, {"measurement": "Inhibition (%) on ColA", "setting": "[2]; 100 µM, mean ± SD of three replications (five-dose assay)", "result": "Almost complete inhibition"}, {"measurement": "inhibition at 1 µM", "setting": "[2]; [8]", "result": "13.8 ± 1.5", "unit": "%"}, {"measurement": "inhibition at 5 µM", "setting": "[2]; [8]", "result": "50.6 ± 0.5", "unit": "%"}, {"measurement": "inhibition at 10 µM", "setting": "[2]; [8]", "result": "69.2 ± 0.4", "unit": "%"}, {"measurement": "inhibition at 50 µM", "setting": "[2]; [8]", "result": "80.8 ± 0.7", "unit": "%"}, {"measurement": "impact on the bacterial growth", "setting": "[3]", "result": "low impact on the bacterial growth"}]}, {"compound": "COc1cc2c(cc1OC)-c1cc3ccc(OC)c(OC)c3c[n+]1CC2", "note": "[Palmatine chloride, palmatine chloride]", "values": [{"measurement": "lethal dose 50", "setting": "[4]", "result": 1533.68, "unit": "mg/kg"}, {"measurement": "Inhibition (%) on ColA", "setting": "[2]; 50 µM, mean ± SD of three replications", "result": "Almost complete inhibition"}, {"measurement": "inhibition at 1 µM", "setting": "[2]; [8]", "result": "15.5 ± 3.9", "unit": "%"}, {"measurement": "inhibition at 5 µM", "setting": "[2]; [8]", "result": "35.4 ± 1.8", "unit": "%"}, {"measurement": "inhibition at 10 µM", "setting": "[2]; [8]", "result": "84.9 ± 1.5", "unit": "%"}, {"measurement": "inhibition at 50 µM", "setting": "[2]; [8]", "result": "97.9 ± 1.6", "unit": "%"}, {"measurement": "inhibition at 100 µM", "setting": "[2]; [8]", "result": "98.7 ± 0.4", "unit": "%"}, {"measurement": "inhibition at 100 µM", "setting": "[2]; [9]", "result": 103, "unit": "%"}, {"measurement": "neuraminidase inhibition (in words)", "setting": "[5]", "result": "potent effect"}]}, {"compound": "O=c1cc(-c2ccc(O)cc2)oc2cccc(O)c12", "note": "[4′,5-Dihydroxyflavone, 4′,5-dihydroxyflavone]", "values": [{"measurement": "IC50 (in words)", "setting": "[2]", "result": "nanomolar range"}, {"measurement": "inhibitory effect on ColA (in words)", "setting": "[2]", "result": "potently inhibits its activity"}, {"measurement": "Inhibition (%) on ColA", "setting": "[2]; 5 µM, mean ± SD of three replications", "result": "Almost complete inhibition"}, {"measurement": "inhibition at 1 µM", "setting": "[2]; [8]", "result": "-48 ± 3.6", "unit": "%"}, {"measurement": "inhibition at 5 µM", "setting": "[2]; [8]", "result": "101.6 ± 0.6", "unit": "%"}, {"measurement": "inhibition at 10 µM", "setting": "[2]; [8]", "result": "107.5 ± 1", "unit": "%"}, {"measurement": "inhibition at 50 µM", "setting": "[2]; [8]", "result": "101 ± 1.9", "unit": "%"}, {"measurement": "inhibition at 100 µM", "setting": "[2]; [8]", "result": "105 ± 2.9", "unit": "%"}, {"measurement": "inhibition at 100 µM", "setting": "[2]; [9]", "result": 15, "unit": "%"}]}, {"compound": "O=c1c(-c2ccc(O)cc2)coc2cc(O)cc(O)c12", "note": "[genistein]", "values": [{"measurement": "inhibition at 100 µM", "setting": "[2]; [9]", "result": -1.1, "unit": "%"}]}, {"compound": "N[C@@H](CS)C(=O)O", "note": "[cysteine]", "values": [{"measurement": "inhibition at 100 µM", "setting": "[2]; [9]", "result": 1.7, "unit": "%"}]}, {"compound": "NS(=O)(=O)c1cc2c(cc1C(F)(F)F)NC(Cc1ccccc1)NS2(=O)=O", "note": "(stereo not shown) [bendroflumethiazide, reference compound]", "values": [{"measurement": "inhibition at 100 µM", "setting": "[2]; [9]", "result": 21.6, "unit": "%"}]}, {"compound": "COc1ccc2cc3[n+](cc2c1OC)CCc1cc2c(cc1-3)OCO2", "note": "[berberine]", "values": [{"measurement": "inhibition at 100 µM", "setting": "[2]; [9]", "result": -2.5, "unit": "%"}]}, {"compound": "O=c1cc(-c2ccccc2)oc2cc(O)cc(O)c12", "note": "[chrysin]", "values": [{"measurement": "inhibitory effect on ColA (in words)", "setting": "[2]", "result": "low inhibitory effects"}, {"measurement": "inhibition at 100 µM", "setting": "[2]; [9]", "result": -3.4, "unit": "%"}]}, {"compound": "Cc1cc(NC(=O)C2=C(O)c3ccccc3S(=O)(=O)N2C)no1", "note": "[isoxicam, reference compound]", "values": [{"measurement": "inhibition at 100 µM", "setting": "[2]; [9]", "result": -10.1, "unit": "%"}]}, {"compound": "Oc1cc(O)nc(S)n1", "note": "[4,6-dihydroxy-2-mercaptopyrimidine]", "values": [{"measurement": "inhibition at 100 µM", "setting": "[2]; [9]", "result": -7.2, "unit": "%"}]}, {"compound": "CC(=O)c1c(O)c(C)c(O)c2c1OC1=CC(=O)C(C(C)=O)C(=O)C12C", "note": "(stereo not shown) [usnic acid]", "values": [{"measurement": "inhibition at 100 µM", "setting": "[2]; [9]", "result": 3.9, "unit": "%"}]}, {"compound": "O=C(/C=C/C=C/c1ccc2c(c1)OCO2)N1CCCCC1", "note": "[Piperine, piperine]", "values": [{"measurement": "solubility", "setting": "[1]", "result": "low solubility"}, {"measurement": "morphological structure of rats' tendons", "setting": "[6]", "result": "improvement of the morphological structure"}, {"measurement": "IC50 (in words)", "setting": "[2]", "result": "nanomolar range"}, {"measurement": "inhibitory effect on ColA (in words)", "setting": "[2]", "result": "potent inhibitory effects on ColA, even at small concentration"}, {"measurement": "inhibition at 1 µM", "setting": "[2]; [8]", "result": "84.5 ± 0.4", "unit": "%"}, {"measurement": "inhibition at 5 µM", "setting": "[2]; [8]", "result": "82.4 ± 0.4", "unit": "%"}, {"measurement": "inhibition at 10 µM", "setting": "[2]; [8]", "result": "72.5 ± 2.7", "unit": "%"}, {"measurement": "inhibition at 100 µM", "setting": "[2]; [9]", "result": 81.1, "unit": "%"}]}, {"compound": "O=c1ccc2cc(O)ccc2o1", "note": "[6-hydroxycoumarin]", "values": [{"measurement": "inhibition at 100 µM", "setting": "[2]; [9]", "result": 12.5, "unit": "%"}]}, {"compound": "O=c1c(O)c(-c2ccc(O)c(O)c2)oc2cc(O)cc(O)c12", "note": "[quercetin]", "values": [{"measurement": "IC50", "setting": "[7]", "result": 286, "unit": "µM"}]}, {"compound": "CC(=O)c1ccc(S(=O)(=O)NC(=O)NC2CCCCC2)cc1", "note": "[acetohexamide, reference compound]", "values": [{"measurement": "inhibition at 100 µM", "setting": "[2]; [9]", "result": 16.6, "unit": "%"}]}, {"compound": "Cc1ccc(S(=O)(=O)NC(N)=O)cc1", "note": "[4-methylphenylsulfonylurea]", "values": [{"measurement": "inhibition at 100 µM", "setting": "[2]; [9]", "result": 19.6, "unit": "%"}]}, {"compound": "O=C(O)[C@@H](S)[C@@H](S)C(=O)O", "note": "[meso-2,3-dimercaptosuccinic acid, reference compound]", "values": [{"measurement": "inhibition at 100 µM", "setting": "[2]; [9]", "result": 25.6, "unit": "%"}]}, {"compound": "CC(=O)NCCCS(=O)(=O)O", "note": "[acamprosate calcium, reference compound]", "values": [{"measurement": "inhibition at 100 µM", "setting": "[2]; [9]", "result": 17.2, "unit": "%"}]}, {"compound": "CC1=CC(=O)c2c(O)cccc2C1=O", "note": "[plumbagin]", "values": [{"measurement": "inhibition at 100 µM", "setting": "[2]; [9]", "result": -7.7, "unit": "%"}]}]}
